Measured values published in patent US11219596B2, “Compositions and methods for ophthalmic and/or other applications” (The Johns Hopkins University, priority 2012, dated 2022).
Like-named read-outs stand apart in the source and are kept apart here. One block for each molecule: values may come before it.

Assays:
[1] = Multiple particle tracking of pyrene nanoparticles milled with PVAs and other surface-altering agents in CVM
Method: An aqueous dispersion containing pyrene and one of the surface-altering agents listed above was stirred with milling media until particle size was reduced below 500 nm (as measured by dynamic light scattering).
Prior to quantifying mobility of pyrene particles, their spatial distribution in the mucus sample was assessed visually.

[2] = Multiple particle tracking of pyrene/stabilizer nanoparticles in CVM
Method: Prior to quantifying mobility of the produced pyrene nanoparticles, their spatial distribution in the mucus sample was assessed by microscopy at low magnifications (10×, 40×).
CVM was collected by inserting a Softcup® menstrual collection cup into the vaginal tract as described by the product literature for between 30 seconds and 2 minutes. After removal the CVM was then collected from the Softcup® by gentle centrifugation at ˜30×G to ˜120×G in a 50 mL centrifuge tube. In Example 1, CVM was used undiluted and fresh (stored for no longer than 7 days under refrigerated conditions). Barrier and transport of all CVM samples used in Example 1 were verified with negative (200 nm carboxylated polystyrene particles) and positive (200 nm polystyrene particles modified with PEG 5K) controls. In Example 2, CVM was lyophilized and reconstituted. In Example 2, mucus was frozen at −50° C. and then lyophilized to dryness. Samples were then stored at −50° C. Before use, the mucus was reconstituted by grinding the solid into a fine powder using a mortar and pestle followed by water addition to a final volume equal to the original volume to 2 times the original volume. The reconstituted mucus was then incubated at 4° C. for 12 hours and used as described in Example 2. Barrier and transport of all CVM samples used in Example 2 were verified with negative (200 nm carboxylated polystyrene particles) and positive (F127 coated 200 nm polystyrene particles) controls.

[3] = format: in vitro ADME, human
Text: The mobility of LE nanoparticles from the produced nanosuspensions in fresh undiluted human cervicovaginal mucus (CVM) was characterized by dark-field microscopy using a CytoViva® High Resolution Illumination System which allows visualization of fluorescent and non-fluorescent nano-sized objects. […] Mobility of particles in the movies was scored on a scale from 0 to 3 in order of increasing mobility, in a single-blind experiment by independent observers. The scoring criterion is as follows: 0-0.5 immobile; 0.51-1.5 slightly mobile; 1.51-2.5 moderately mobile; and 2.51-3.0 very mobile.

[4] = test system: vascular leakage after intravitreal injection of VEGF; experiment: Rabbit VEGF-challenge model (fluorescein angiography); format: in vivo, Dutch belted rabbits; conditions: day 6; VEGF intravitreal on day 3; 5% axitinib-MPP 50 μL every 4 hours days 1-6, or one intravitreal Avastin on day 1
Text: On day 3, the rabbits received an intravitreal injection of VEGF. On day 6, the rabbits were accessed for leakage via fluorescein angiography.
In this model, Dutch belted rabbits were given an intravitreal injection of VEGF to stimulate vascular growth. Fluorescein angiography was used to determine the degree to which the rabbits developed abnormal vascular and leakage.

[5] = pyrene nanoparticles milled with the surface-altering agent, in CVM

Molecule: CCCCCCCCCCCCCCCC[N+](C)(C)C [CTAB, Cetytrimethylammonium bromide]
Sample (relative) <Vmean>rel [1, 5]: −0.02
Sample <Vmean> [1, 5]: 0.32 um/s
Sample <Vmean> (ensemble-average velocity) ([2]; pyrene/stabilizer nanoparticles in CVM): 0.32 um/s
Sample (relative) <Vmean>rel ([2]; pyrene/stabilizer nanoparticles in CVM, relative to negative and positive controls): −0.02

mobility score in CVM [3]: < 0.50
Molecule: Pluronic F68

mobility score in CVM [3]: > 2.51
Molecule: Pluronic F127

Sample (relative) <Vmean>rel [1]: −0.02
Sample <Vmean> [1]: 0.42 um/s
Sample (relative) <Vmean>rel [2]: −0.02
Sample <Vmean> (ensemble-average velocity) [2]: 0.42 um/s
Molecule: Tyloxapol

Molecule: Avastin®: positive control, one intravitreal injection; commonly used off-label to treat AMD
retinal vessel growth and leakage (fluorescein angiography) [4]: no change in retinal vasculature

Sample (relative) <Vmean>rel [1]: 0.17
Sample <Vmean> [1]: 0.94 um/s
Sample (relative) <Vmean>rel [2]: 0.17
Sample <Vmean> (ensemble-average velocity) [2]: 0.94 um/s
Molecule: Tween 80

mobility score in CVM [3]: 1.51.-2.50
Molecule: Pluronic P123
